Assay results as given in patent US11590116B2 (THERAVANCE BIOPHARMA R&D IP, LLC, priority 2019, dated 2023).

Key:
[1] = test system: TGF-β-stimulated SMAD3 phosphorylation in BEAS-2B cells; test: Cellular ALK5 potency assay, inhibition of TGF-β stimulated pSMAD3 formation in BEAS-2B cells; type: cell-based; details: Homo sapiens; inhibition of TGF-β stimulated pSMAD3 formation, BEAS-2B cells; read-out: BEAS2B pIC50 (converted)
Procedure, shortened: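 pSMAD3 was quantified by AlphaLISA in BEAS-2B lysates after 10 ng/mL TGF-β (final) for 30 min. Before stimulation, cells received compound for 1 h at 37° C in supplemented HBSS. Values are pIC50, relative to TGF-β-stimulated cells without compound.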

[2] = biological target: T1, recombinant human ALK5 (TGF-βR1) protein (Homo sapiens, UniProt P36897); test: Biochemical ALK5 (TGF-βR1) assay to measure pKi (LANCE Ultra ULight kinase assay); details: apparent pKi from pIC50 by Cheng-Prusoff, read-out: ALK5 pKi (converted)
T1 construct: purchased Life Technologies PR9075A
T1 sequence (P36897 34-503): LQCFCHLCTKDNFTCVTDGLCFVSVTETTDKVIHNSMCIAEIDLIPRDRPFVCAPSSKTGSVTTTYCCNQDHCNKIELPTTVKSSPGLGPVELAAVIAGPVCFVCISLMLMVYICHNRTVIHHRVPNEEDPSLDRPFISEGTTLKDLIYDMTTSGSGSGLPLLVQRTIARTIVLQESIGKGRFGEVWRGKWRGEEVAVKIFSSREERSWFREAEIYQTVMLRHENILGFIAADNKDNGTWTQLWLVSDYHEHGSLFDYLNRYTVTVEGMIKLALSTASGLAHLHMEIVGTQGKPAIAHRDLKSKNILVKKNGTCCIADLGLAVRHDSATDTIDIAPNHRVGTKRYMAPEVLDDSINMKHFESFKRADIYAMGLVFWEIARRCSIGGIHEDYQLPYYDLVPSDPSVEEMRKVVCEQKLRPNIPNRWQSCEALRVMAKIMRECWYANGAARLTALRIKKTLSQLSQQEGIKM
Procedure, shortened: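 Dose range 10 μM–25 pM; enzyme + compound 60 min RT; ATP added (5× stock 125 μM, 2 mM DTT); 60 min 37 °C; stop with EDTA + Eu anti-phospho-Topo IIα Thr1342 Ab; TR-FRET ex 320/340, em 665 nm. 4-param pIC50 → pKi (Cheng-Prusoff).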

SMILES	IC50 [1] [nM]	Ki [2] [nM]
Cc1cccc(-c2n[nH]cc2-c2ccc3ncc(-c4cn(Cc5cccnc5)nn4)cc3n2)n1 [Compound 35, 2-[3-(6-methyl-2-pyridyl)-1H-pyrazol-4-yl]-7-[1-(3-pyridylmethyl)triazol-4-yl]-1,5-naphthyridine]	< 20	0.0398 to 0.316
Cc1cccc(-c2[nH]cnc2-c2ccc3ncc(C4=CCC(C(=O)OCC5CNC5)CC4)cc3c2)n1 (centres unmarked) [Compound 36, azetidin-3-ylmethyl 4-[6-[5-(6-methyl-2-pyridyl)-1H-imidazol-4-yl]-3-quinolyl]cyclohex-3-ene-1-carboxylate]	25.1 to 158	0.0398 to 0.316
COC[C@H]1CN(CCNc2cnc3ccc(-c4nc[nH]c4-c4cccc(C)n4)cc3c2)CCN1 [Compound 37, N-[2-[(3R)-3-(methoxymethyl)piperazin-1-yl]ethyl]-6-[5-(6-methyl-2-pyridyl)-1H-imidazol-4-yl]quinolin-3-amine]	25.1 to 158	0.0398 to 0.316
Cc1cccc(-c2c(-c3ccc4ncc(N5CCC(N(C)C)C5)cc4c3)nnn2Cc2ccccc2)n1 (centres unmarked) [Compound 38, 1-[6-[1-benzyl-5-(6-methyl-2-pyridyl)triazol-4-yl]-3-quinolyl]-N,N-dimethyl-pyrrolidin-3-amine]	1580 to 10000	0.398 to 3.16
Cc1nc(-c2n[nH]cc2-c2ccc3ncc(-c4ncc5n4CCNC5)cc3n2)ccc1F [Compound 39, 2-[3-(5-fluoro-6-methyl-2-pyridyl)-1H-pyrazol-4-yl]-7-(5,6,7,8-tetrahydroimidazo[1,5-a]pyrazin-3-yl)-1,5-naphthyridine]	200 to 1260	0.398 to 3.16
Cc1cccc(-c2n[nH]cc2-c2ccc3ncc(-c4nnc5n4CCNC5)cc3n2)n1 [Compound 40, 2-[3-(6-methyl-2-pyridyl)-1H-pyrazol-4-yl]-7-(5,6,7,8-tetrahydro-[1,2,4]triazolo[4,3-a]pyrazin-3-yl)-1,5-naphthyridine]	1580 to 10000	3.98 to 31.6
Cc1cccc(-c2[nH]cnc2-c2ccc3ncc(N4CCC(C(=O)O[C@@H]5CCNC5)CC4)cc3c2)n1 [Compound 41, [(3R)-pyrrolidin-3-yl] 1-[6-[5-(6-methyl-2-pyridyl)-1H-imidazol-4-yl]-3-quinolyl]piperidine-4-carboxylate]	25.1 to 158	0.0398 to 0.316
COc1[nH]nc(-c2cccc(C)n2)c1-c1ccc2ncc(Br)cc2n1 [Compound 42, 7-bromo-2-(5-methoxy-3-(6-methylpyridin-2-yl)-1H-pyrazol-4-yl)-1,5-naphthyridine]	25.1 to 158	0.0398 to 0.316
Cc1nc(-c2n[nH]cc2-c2ccc3ncc(NCCN4CCN(C(C)C)CC4)cc3n2)ccc1F [Compound 43, 6-[3-(5-fluoro-6-methyl-2-pyridyl)-1H-pyrazol-4-yl]-N-[2-(4-isopropylpiperazin-1-yl)ethyl]-1,5-naphthyridin-3-amine]	25.1 to 158	0.0398 to 0.316
Cc1cccc(-c2n[nH]cc2-c2ccc3ncc(C(=O)NCCN4CCOCC4)cc3n2)n1 [Compound 44, 6-[3-(6-methyl-2-pyridyl)-1H-pyrazol-4-yl]-N-(2-morpholinoethyl)-1,5-naphthyridine-3-carboxamide]	25.1 to 158	< 0.0316
CNC1CCN(c2cnc3ccc(-c4c[nH]nc4-c4cccc(C)n4)nc3c2)CC1 [Compound 45, N-methyl-1-[6-[3-(6-methyl-2-pyridyl)-1H-pyrazol-4-yl]-1,5-naphthyridin-3-yl]piperidin-4-amine]	25.1 to 158	< 0.0316
Cc1cccc(-c2[nH]nnc2-c2ccc3ncc(NCCN4CCN(C(C)C)CC4)cc3n2)n1 [Compound 46, N-[2-(4-isopropylpiperazin-1-yl)ethyl]-6-[5-(6-methyl-2-pyridyl)-1H-triazol-4-yl]-1,5-naphthyridin-3-amine]	200 to 1260	0.398 to 3.16
Cc1nc(-c2nc3ccccn3c2-c2ccc3ncc(N4CCC(N5CCN(C)CC5)CC4)cc3n2)ccc1F [Compound 47, 2-[2-(5-fluoro-6-methyl-2-pyridyl)imidazo[1,2-a]pyridin-3-yl]-7-[4-(4-methylpiperazin-1-yl)-1-piperidyl]-1,5-naphthyridine]	200 to 1260	0.0398 to 0.316
Cc1cccc(-c2n[nH]cc2-c2ccc3ncc(-c4cn(Cc5ccccc5)nn4)cc3n2)n1 [Compound 48, 7-(l-benzyltriazol-4-yl)-2-[3-(6-methyl-2-pyridyl)-1H-pyrazol-4-yl]-1,5-naphthyridine]	< 20	0.0398 to 0.316
Cc1cccc(-c2[nH]cnc2-c2ccc3ncc(C4=CCC(C(=O)O[C@@H]5CCNC5)CC4)cc3c2)n1 (stereo partly drawn) [Compound 49, [(3R)-pyrrolidin-3-yl] 4-[6-[5-(6-methyl-2-pyridyl)-1H-imidazol-4-yl]-3-quinolyl]cyclohex-3-ene-1-carboxylate]	25.1 to 158	0.0398 to 0.316
Cc1cccc(-c2[nH]cnc2-c2ccc3ncc(NC4CNC4)cc3c2)n1 [Compound 50, N-(azetidin-3-yl)-6-[5-(6-methyl-2-pyridyl)-1H-imidazol-4-yl]quinolin-3-amine]	25.1 to 158	0.0398 to 0.316
Cc1nc(-c2n[nH]cc2-c2ccc3ncc(-c4nc(C(F)(F)F)n5c4CNCC5)cc3n2)ccc1F [Compound 51, 2-[3-(5-fluoro-6-methyl-2-pyridyl)-1H-pyrazol-4-yl]-7-[3-(trifluoromethyl)-5,6,7,8-tetrahydroimidazo[1,5-a]pyrazin-1-yl]-1,5-naphthyridine]	25.1 to 158	0.0398 to 0.316
Cc1cccc(-c2n[nH]cc2-c2ccc3ncc(N4CCC[C@H]4CO)cc3n2)n1 [Compound 52, [(2S)-1-[6-[3-(6-methyl-2-pyridyl)-1H-pyrazol-4-yl]-1,5-naphthyridin-3-yl]pyrrolidin-2-yl]methanol]	25.1 to 158	0.0398 to 0.316
COC(=O)c1cnc2ccc(-c3cn[nH]c3-c3cccc(C)n3)nc2c1 [Compound 53, methyl 6-[5-(6-methyl-2-pyridyl)-1H-pyrazol-4-yl]-1,5-naphthyridine-3-carboxylate]	25.1 to 158	0.0398 to 0.316
Cc1cccc(-c2[nH]cnc2-c2ccc3ncc(-c4ccc(C(=O)OCC5CNC5)nc4)cc3c2)n1 [Compound 54, azetidin-3-ylmethyl 5-[6-[5-(6-methyl-2-pyridyl)-1H-imidazol-4-yl]-3-quinolyl]pyridine-2-carboxylate]	200 to 1260	0.0398 to 0.316
Cc1cccc(-c2n[nH]cc2-c2ccc3ncc(C(=O)NCCCN4CCN(C(C)C)CC4)cc3n2)n1 [Compound 55, N-[3-(4-isopropylpiperazin-1-yl)propyl]-6-[3-(6-methyl-2-pyridyl)-1H-pyrazol-4-yl]-1,5-naphthyridine-3-carboxamide]	200 to 1260	0.0398 to 0.316
Cc1cccc(-c2[nH]cnc2-c2ccc3ncc(NCCN4CCCC4(C)C)cc3c2)n1 [Compound 56, N-[2-(2,2-dimethylpyrrolidin-1-yl)ethyl]-6-[5-(6-methyl-2-pyridyl)-1H-imidazol-4-yl]quinolin-3-amine]	25.1 to 158	< 0.0316
Cc1ccc(S(=O)(=O)NCC(=O)Nc2cnc3ccc(-c4c[nH]nc4-c4cccc(C)n4)nc3c2)cc1 [Compound 57, N-[6-[3-(6-methyl-2-pyridyl)-1H-pyrazol-4-yl]-1,5-naphthyridin-3-yl]-2-(p-tolylsulfonylamino)acetamide]	25.1 to 158	0.0398 to 0.316
Cc1cccc(-c2n[nH]cc2-c2ccc3ncc(-c4cccc(F)c4)cc3n2)n1 [Compound 58, 7-(3-fluorophenyl)-2-[3-(6-methyl-2-pyridyl)-1H-pyrazol-4-yl]-1,5-naphthyridine]	25.1 to 158	0.0398 to 0.316
Cc1cccc(-c2n[nH]cc2-c2ccc3ncc(N(C)C)cc3n2)n1 [Compound 59, N,N-dimethyl-6-[3-(6-methyl-2-pyridyl)-1H-pyrazol-4-yl]-1,5-naphthyridin-3-amine]	< 20	0.0398 to 0.316
COC(=O)CC1CN(c2cnc3ccc(-c4nc[nH]c4-c4cccc(C)n4)cc3c2)CCN1 (centres unmarked) [Compound 60, methyl 2-(4-(6-(5-(6-methylpyridin-2-yl)-1H-imidazol-4-yl)quinolin-3-yl)piperazin-2-yl)acetate]	25.1 to 158	0.0398 to 0.316
COc1ncccc1-c1cnc2ccc(-c3c[nH]nc3-c3cccc(C)n3)nc2c1 [Compound 61, 7-(2-methoxy-3-pyridyl)-2-[3-(6-methyl-2-pyridyl)-1H-pyrazol-4-yl]-1,5-naphthyridine]	25.1 to 158	0.0398 to 0.316
Cc1cccc(-c2[nH]ncc2-c2ccc3ncc(C(=O)OC4CCC5(CNC5)C4)cc3n2)n1 (centres unmarked) [Compound 62, 2-azaspiro[3.4]octan-6-yl 6-[5-(6-methyl-2-pyridyl)-1H-pyrazol-4-yl]-1,5-naphthyridine-3-carboxylate]	200 to 1260	0.0398 to 0.316
